Measurements taken from article PMC7076352 (Pharmaceutics, 2020).
Several values for one entry are separate records, joined by “and”; a condition that tells them apart may be missing. Identical values can stand only once. Like-named read-outs stand apart in the source and are kept apart here.

Legend:
[1] = target: T1, CYP1A2 (Rattus norvegicus, UniProt P04799); experiment: In vitro cocktail CYP450 activity assay in rat liver microsomes, CYP1A2 (phenacetin probe)
T1 sequence (P04799 1-513): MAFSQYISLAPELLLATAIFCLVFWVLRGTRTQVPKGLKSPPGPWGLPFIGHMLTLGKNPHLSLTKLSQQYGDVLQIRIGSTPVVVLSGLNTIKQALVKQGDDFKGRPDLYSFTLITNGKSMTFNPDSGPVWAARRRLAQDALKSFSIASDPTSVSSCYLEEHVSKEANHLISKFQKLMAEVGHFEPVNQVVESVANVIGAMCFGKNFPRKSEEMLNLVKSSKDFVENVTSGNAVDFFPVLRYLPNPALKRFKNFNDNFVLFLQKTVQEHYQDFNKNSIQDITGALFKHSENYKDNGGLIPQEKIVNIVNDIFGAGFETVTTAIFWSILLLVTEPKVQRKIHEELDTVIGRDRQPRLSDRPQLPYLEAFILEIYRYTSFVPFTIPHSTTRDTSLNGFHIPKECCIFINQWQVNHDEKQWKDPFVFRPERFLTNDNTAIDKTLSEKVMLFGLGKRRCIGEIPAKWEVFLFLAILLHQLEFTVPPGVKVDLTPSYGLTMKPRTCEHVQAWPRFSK
Procedure: (§1) (OHBUP-[D6]) and 5 nM 4′-hydroxydiclofenac-[^13C6] (OHDIC-[^13C6]) as internal standards (ISs). […]
(§2) standard addition experiments. Each group included four concentration levels. For the PK […]
(§3) The probe compounds, viz. […]
(§4) chosen after incubating all the recruited substrates. In order to assure the linear relationship […]
(§5) The incubation system was also optimized in terms of substrate concentrations. The substrates concentrations of […]

[2] = target: T2, CYP2E1 (Rattus norvegicus, UniProt P05182)
T2 sequence (P05182 whole entry): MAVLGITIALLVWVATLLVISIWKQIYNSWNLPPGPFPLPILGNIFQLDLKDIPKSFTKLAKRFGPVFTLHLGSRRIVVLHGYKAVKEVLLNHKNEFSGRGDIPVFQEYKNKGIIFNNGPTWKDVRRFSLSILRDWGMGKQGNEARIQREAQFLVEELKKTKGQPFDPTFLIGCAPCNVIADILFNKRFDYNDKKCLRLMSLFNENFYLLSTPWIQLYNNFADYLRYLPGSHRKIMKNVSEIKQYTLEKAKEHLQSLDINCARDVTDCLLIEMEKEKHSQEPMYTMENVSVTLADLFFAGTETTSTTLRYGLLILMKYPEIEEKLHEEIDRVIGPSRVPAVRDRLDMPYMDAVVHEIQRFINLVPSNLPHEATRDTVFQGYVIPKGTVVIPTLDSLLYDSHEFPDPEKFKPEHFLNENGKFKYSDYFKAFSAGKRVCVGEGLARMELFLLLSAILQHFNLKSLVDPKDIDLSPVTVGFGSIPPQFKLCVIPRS
Procedure: (§6) For the cocktail assay, the activity is expressed as the percentage of activity remaining comparing with that of a control sample containing no inhibitor. […] All the data were described as mean ± standard deviation (SD). Normality assumptions were tested by the Kolmogorov–Smirnov statistic setting p = 0.10 as the limit for rejection of the null hypothesis of normality. If the distribution of the data was normal with equal variances, a two-sided test was performed at the 5% level of significance. The Welch’s correction was then applied when the underlying variances were not equal. When the assumption of normality must be rejected, the Mann-Whitney test, a non-parametric equivalent of the independent-measures t-test, was used.

[3] = test system: CYP2C9; experiment: In vitro cocktail CYP450 activity assay in rat liver microsomes, CYP2C9 (tolbutamide probe)
Procedure: as §1, §2, §3, §4, §5

[4] = test system: CYP2D6; experiment: in vitro
Procedure: as §1, §2, §3, §4, §5

[5] = test system: CYP2B6; experiment: in vitro
Procedure: as §1, §2, §3, §4, §5

[6] = test system: CYP3A4; experiment: in vitro
Procedure: as §1, §2, §3, §4, §5

[7] = test system: CYP2C19; experiment: in vitro
Procedure: as §1, §2, §3, §4, §5

[8] = target: T2, CYP2E1; settings: IC50 CYP2E1, single components; RLM 0.2 mg/mL, 15 min, triplicate, mean ± SD
Procedure: as §6

[9] = read-out: IC50 CYP1A2, single components, RLM 0.2 mg/mL, 15 min, triplicate, mean ± SD
[10] = read-out: IC50 CYP2E1, single components, RLM 0.2 mg/mL, 15 min, triplicate, mean ± SD
[11] = read-out: IC50 CYP2C9, single components, RLM 0.2 mg/mL, 15 min, triplicate, mean ± SD
[12] = read-out: IC50 CYP3A4, single components, RLM 0.2 mg/mL, 15 min, triplicate, mean ± SD
[13] = read-out: IC50 CYP2D6, single components, RLM 0.2 mg/mL, 15 min, triplicate, mean ± SD
[14] = read-out: IC50 CYP2B6, single components, RLM 0.2 mg/mL, 15 min, triplicate, mean ± SD
[15] = read-out: IC50 CYP2C19, single components, RLM 0.2 mg/mL, 15 min, triplicate, mean ± SD

Compound	IC50 ([4]; microsomes) [µM]	IC50 ([5]; microsomes) [µM]	IC50 ([7]; microsomes) [µM]	IC50 ([1]; microsomes) [µM]	IC50 ([2]; microsomes) [µM]	IC50 ([3]; microsomes) [µM]	IC50 ([6]; microsomes) [µM]	IC50 [3, 11] [µM]	IC50 [6, 12] [µM]	IC50 [5, 14] [µM]	other results
O=c1c(O[C@@H]2O[C@H](CO)[C@@H](O)[C@H](O)[C@H]2O[C@@H]2O[C@H](CO)[C@@H](O)[C@H](O)[C@H]2O)c(-c2ccc(O)cc2)oc2cc(O)cc(O)c12 [A14, kaempferol-3-O-sophoroside]	> 200	> 200	> 200					> 200	> 200		IC50 [1, 9]: > 200 µM; IC50 [2, 10]: > 200 µM
notoginseng total saponins [NGTS]											IC50 CYP1A2 ([1]; microsomes): 60.68 ± 2.26 µg/mL; IC50 CYP2C9 ([3]; microsomes): 9.32 ± 0.56 µg/mL; IC50 CYP2D6 ([4]; microsomes): 12.23 ± 4.25 µg/mL; IC50 CYP2B6 ([5]; microsomes): 43.90 ± 7.91 µg/mL; IC50 CYP3A4 ([6]; microsomes): 106.27 ± 14.00 µg/mL; IC50 CYP2C19 ([7]; microsomes): 40.85 ± 6.98 µg/mL
kaempferol-3-O-rutinoside [A11]								24.9 ± 4.96	16.2 ± 4.3	17.3 ± 0.96	IC50 [4, 13]: 64.5 ± 7.71 µM; IC50 [7, 15]: > 200 µM
O=c1c(O[C@@H]2O[C@H](CO)[C@@H](O)[C@H](O)[C@H]2O)c(-c2ccc(O)cc2)oc2cc(O)cc(O)c12 [A7, kaempferol-3-O-glucoside]								80.5 ± 1.05	127 ± 4.24	177 ± 4.21	IC50 [1, 9]: 153 ± 8.73 µM; IC50 [2, 10]: 13.6 ± 0.6 µM; IC50 [4, 13]: 31 ± 4.17 µM; IC50 [7, 15]: 18.5 ± 1.6 µM
O=c1c(O)c(-c2ccc(O)cc2)oc2cc(O)c(O)c(O)c12 [A18, 6-hydroxykaempferol]										4.42 ± 1.31	IC50 ([1]; IC50 CYP1A2, single components, RLM 0.2 mg/mL, 15 min, triplicate, mean ± SD): < 5 µM and 0.12 µM; IC50 at 15 min ([5]; Sprague-Dawley, rat, pooled rat liver microsomes, pH 7.4, probe bupropion (90 µM, in seven-probe cocktail), IC50 CYP2B6, single components, RLM 0.2 mg/mL, 15 min, triplicate, mean ± SD): < 5 µM; IC50 [8]: < 5 µM and 4.27 µM
Carthamus tinctorius extract [CTE]											IC50 CYP1A2 ([1]; microsomes): 138.60 ± 14.36 µg/mL; inhibition on CYP1A2 (in words) ([1]; microsomes): weak inhibition; IC50 CYP2C9 ([3]; microsomes): 183.30 ± 17.98 µg/mL; inhibition on CYP2C9 (in words) ([3]; microsomes): weak inhibition; IC50 CYP2D6 ([4]; microsomes): 126.17 ± 17.63 µg/mL; inhibition on CYP2D6 (in words) ([4]; microsomes): weak inhibition; IC50 CYP2B6 ([5]; microsomes): 58.09 ± 13.41 µg/mL; inhibition on CYP2B6 (in words) ([5]; microsomes): moderate inhibition; IC50 CYP3A4 ([6]; microsomes): >200 µg/mL; IC50 CYP2C19 ([7]; microsomes): >200 µg/mL

Continued, in another order:

IC50 ([4]; microsomes) [µM]	IC50 ([5]; microsomes) [µM]	IC50 ([7]; microsomes) [µM]	IC50 ([1]; microsomes) [µM]	IC50 ([2]; microsomes) [µM]	IC50 ([3]; microsomes) [µM]	IC50 ([6]; microsomes) [µM]	Compound	IC50 [3, 11] [µM]	IC50 [6, 12] [µM]	IC50 [5, 14] [µM]	other results
98.6 ± 12.3	> 200	> 200	> 200	> 200	> 200	> 200	C[C@@H]1OC(OC[C@H]2OC(Oc3c(-c4ccc(O)cc4)oc4cc(O)c(OC5O[C@H](CO)[C@@H](O)[C@H](O)[C@H]5O)c(O)c4c3=O)[C@H](O)[C@@H](O)[C@@H]2O)[C@H](O)[C@H](O)[C@H]1O (stereo partly shown) [A12, 6-hydroxykaempferol-3-O-rutinosyl-6-O-glucoside]				
> 200	> 200	> 200	127 ± 6.55	> 200	> 200	> 200	O=C(O)[C@H]1OC(Oc2cc3oc(-c4ccc(O)cc4)cc(=O)c3c(O)c2OC2O[C@H](CO)[C@@H](O)[C@H](O)[C@H]2O)[C@H](O)[C@@H](O)[C@@H]1O (stereo partly shown) [A15, 6-hydroxyapigenin-6-O-glucosyl-7-O-glucuronide]				
> 200	> 200	> 200	> 200	> 200	39.06 ± 0.09	> 200	O=c1c(OC2O[C@H](CO)[C@@H](O)[C@H](O)[C@H]2O)c(-c2ccc(O)cc2)oc2cc(OC3O[C@H](CO)[C@@H](O)[C@H](O)[C@H]3O)c(OC3O[C@H](CO)[C@@H](O)[C@H](O)[C@H]3O)c(O)c12 (stereo partly shown) [A10, 6-hydroxykaempferol-3,6,7-tri-O-glucoside]				
